This is an account of results in ChEMBL document CHEMBL1821579, “Discovery of amide replacements that improve activity and metabolic stability of a bis-amide smoothened antagonist hit” (Bioorg Med Chem Lett, 2011).

The structures appear in SMILES notation. Active and inactive are the calls of the source. The rule behind the calls is not given here. Bounds are passed on as bounds.

For data set [1], the target named is Protein smoothened (Homo sapiens, UniProt Q99835). Kind of data set: Antagonist activity at human SMO expressed in HEPM cells assessed as reduction of GLI expression after 24 hrs by Quantigene assay. It is filed as functional, cell-based.
Protein smoothened (Homo sapiens, UniProt Q99835), sequence (Q99835 whole entry): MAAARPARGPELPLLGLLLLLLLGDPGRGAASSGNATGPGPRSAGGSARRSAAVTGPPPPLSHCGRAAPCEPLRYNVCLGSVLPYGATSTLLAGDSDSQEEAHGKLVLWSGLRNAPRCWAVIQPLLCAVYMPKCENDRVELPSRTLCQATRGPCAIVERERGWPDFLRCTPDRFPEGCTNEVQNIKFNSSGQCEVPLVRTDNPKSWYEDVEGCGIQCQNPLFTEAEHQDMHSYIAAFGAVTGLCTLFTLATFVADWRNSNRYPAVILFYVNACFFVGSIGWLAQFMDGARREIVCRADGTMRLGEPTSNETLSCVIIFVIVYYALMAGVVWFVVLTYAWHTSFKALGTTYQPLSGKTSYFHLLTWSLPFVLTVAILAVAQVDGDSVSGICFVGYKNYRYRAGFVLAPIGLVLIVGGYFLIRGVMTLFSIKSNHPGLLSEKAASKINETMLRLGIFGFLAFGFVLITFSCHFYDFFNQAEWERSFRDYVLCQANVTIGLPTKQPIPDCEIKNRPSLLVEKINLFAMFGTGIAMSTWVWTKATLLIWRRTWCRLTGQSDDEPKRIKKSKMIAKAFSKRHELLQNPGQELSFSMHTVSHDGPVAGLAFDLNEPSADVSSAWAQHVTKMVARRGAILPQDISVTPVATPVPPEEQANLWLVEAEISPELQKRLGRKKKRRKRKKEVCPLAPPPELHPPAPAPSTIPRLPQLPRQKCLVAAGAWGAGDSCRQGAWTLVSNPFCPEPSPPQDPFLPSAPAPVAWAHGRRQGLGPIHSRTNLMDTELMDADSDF
A short description of data set [2]: Metabolic stability in rat hepatocyte assessed as compound remaining at 30 mins. It is filed as ADME, cell-based. The following applies: hepatocytes, read-out: Stability.
A short description of data set [3]: Clearance in rat liver microsomes assessed as compound metabolized after 30 mins. The class given is ADME, Microsome. The following applies: read-out: Activity.
Data set [4] can be described thus: Clearance in rat at 0.5 mg/kg, iv. To be noted: in vivo. The class given is ADME, organism-based. Set-up: dose 0.5 mg/kg, route intravenous.
Data set [5] can be described thus: Oral bioavailability in rat at 5 mg/kg. The class given is ADME, organism-based. To be noted: in vivo.
Data set [6] has as its target Protein smoothened (Rattus norvegicus) (UniProt P97698). Kind of data set: Antagonist activity at SMO in rat hepatocyte. The class given is functional, cell-based.
In data set [7] the target is Protein smoothened (Mus musculus, UniProt P56726). Kind of data set: Antagonist activity at mouse SMO expressed in NIH/3T3 cells transfected with Gli-dependent luciferase-reporter after 15 hrs by luciferase reporter gene assay using luminometer. It is filed as functional, cell-based. On the technique in general: Reporter assays use an easily measured gene product as a stand-in for the process of interest.
Protein smoothened (Mus musculus, UniProt P56726), sequence (P56726 whole entry): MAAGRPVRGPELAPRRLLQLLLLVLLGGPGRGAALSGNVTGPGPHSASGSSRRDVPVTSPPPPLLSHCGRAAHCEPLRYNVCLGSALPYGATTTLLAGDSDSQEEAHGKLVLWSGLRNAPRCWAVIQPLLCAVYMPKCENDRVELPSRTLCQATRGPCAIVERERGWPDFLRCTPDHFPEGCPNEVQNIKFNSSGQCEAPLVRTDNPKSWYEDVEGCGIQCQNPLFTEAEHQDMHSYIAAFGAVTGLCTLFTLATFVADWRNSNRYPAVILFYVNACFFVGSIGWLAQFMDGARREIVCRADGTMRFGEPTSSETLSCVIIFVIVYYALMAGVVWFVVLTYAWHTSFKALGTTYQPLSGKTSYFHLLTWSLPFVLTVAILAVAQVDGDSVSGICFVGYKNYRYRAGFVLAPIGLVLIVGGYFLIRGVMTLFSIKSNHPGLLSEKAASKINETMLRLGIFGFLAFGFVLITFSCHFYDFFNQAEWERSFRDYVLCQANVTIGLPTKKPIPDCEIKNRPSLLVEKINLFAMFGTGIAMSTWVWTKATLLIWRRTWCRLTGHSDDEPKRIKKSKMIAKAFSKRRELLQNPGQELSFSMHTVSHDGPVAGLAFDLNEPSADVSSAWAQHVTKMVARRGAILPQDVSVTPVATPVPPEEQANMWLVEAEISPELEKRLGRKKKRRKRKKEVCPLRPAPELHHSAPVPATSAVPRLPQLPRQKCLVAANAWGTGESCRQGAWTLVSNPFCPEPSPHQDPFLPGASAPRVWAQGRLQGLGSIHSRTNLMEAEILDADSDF

Protein smoothened (Rattus norvegicus), sequence (P97698 whole entry): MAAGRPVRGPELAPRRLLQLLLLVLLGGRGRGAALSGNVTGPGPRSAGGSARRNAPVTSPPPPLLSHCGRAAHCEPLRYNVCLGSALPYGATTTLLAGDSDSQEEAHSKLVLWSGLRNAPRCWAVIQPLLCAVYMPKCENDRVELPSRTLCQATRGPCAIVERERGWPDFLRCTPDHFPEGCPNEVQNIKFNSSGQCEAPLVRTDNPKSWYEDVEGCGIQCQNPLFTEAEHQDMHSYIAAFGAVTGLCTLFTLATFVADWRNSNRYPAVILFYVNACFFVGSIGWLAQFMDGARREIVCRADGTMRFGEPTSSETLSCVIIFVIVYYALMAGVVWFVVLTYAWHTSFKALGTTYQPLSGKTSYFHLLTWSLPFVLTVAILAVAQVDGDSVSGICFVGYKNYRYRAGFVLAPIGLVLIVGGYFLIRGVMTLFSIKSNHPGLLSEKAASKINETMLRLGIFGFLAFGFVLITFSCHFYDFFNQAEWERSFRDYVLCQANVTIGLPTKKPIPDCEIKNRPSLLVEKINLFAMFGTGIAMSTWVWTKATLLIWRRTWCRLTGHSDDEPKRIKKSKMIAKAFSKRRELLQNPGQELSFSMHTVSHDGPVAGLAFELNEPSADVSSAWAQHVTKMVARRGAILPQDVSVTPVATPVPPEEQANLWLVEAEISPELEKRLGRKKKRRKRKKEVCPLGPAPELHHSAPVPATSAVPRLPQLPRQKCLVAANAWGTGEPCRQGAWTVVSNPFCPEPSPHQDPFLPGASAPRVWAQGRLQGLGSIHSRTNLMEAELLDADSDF

`O=C(Nc1ccc(-c2cc(-c3ccccc3)ncn2)cc1)c1ccccc1Cl`: the half-maximal inhibitory concentration (IC50) – broadly, the midpoint of a concentration-inhibition curve – at Protein smoothened [1] amounted to 48 nM.
Take `O=C(Nc1ccc(-c2cccc(-c3ccccc3)c2)cc1)c1ccccc1Cl`: the half-inhibitory concentration (IC50) at Protein smoothened [1] worked out at 6.4 nM.
Same read-out and setting: to `O=C(Nc1ccc(-c2nc(-c3ccccc3)co2)cc1)c1ccccc1Cl` belongs 63 nM; to `O=C(Nc1ccc(/C=C/c2ccccc2)cc1)c1ccccc1Cl`, 49 nM; to `O=C(Nc1ccc(-c2ncc(-c3ccccc3)o2)cc1)c1ccccc1Cl`, 40 nM.
For `O=C(Nc1ccc(-c2cccc(-c3ccccc3)n2)cc1)c1ccccc1Cl`, at Protein smoothened [1], the IC50 amounted to 33 nM.
Take `O=C(Nc1ccc(-c2nccc(-c3ccccc3)n2)cc1)c1ccccc1Cl`: the half-inhibitory concentration (IC50) on Protein smoothened [1] worked out at 37 nM.
With `O=C(Nc1ccc(-c2nnc(-c3ccccc3)o2)cc1)c1ccccc1Cl`, the IC50 at Protein smoothened [1] turned out to be 89 nM.
As for `O=C(Nc1ccc(NC(=O)c2ccccc2Cl)cc1)c1ccccc1`, the remaining at 0.5 h in data set [2] was 3%. The IC50 at Protein smoothened [1] was determined as 13 nM. In addition, in data set [3], the metabolised at 0.5 h is less than 10%. The clearance (in general, the volume of plasma or blood freed of the substance per unit of time) in data set [4] was 23.3 mL/min/kg. In addition, the bioavailability (in general, dose-corrected exposure relative to a reference, in per cent) in data set [5] is 12%.
For `O=C(Nc1ccc(-c2csc(-c3ccccc3)n2)cc1)c1ccccc1Cl`, at Protein smoothened [1], the IC50 worked out at 109 nM.
In the case of `CC(=O)Nc1ccc(NC(=O)c2ccccc2Cl)cc1`, in data set [6], the inhibition result is “inactive”.
As for `O=C(Nc1ccc(-c2nc(-c3ccccc3)c(C(F)(F)F)o2)cc1)c1ccccc1Cl`, the values for the IC50 at Protein smoothened [1] and against Protein smoothened [7] were 31 nM and 17 nM, respectively. Besides, the metabolised at 0.5 h in data set [3] was less than 10%. Moreover, in data set [4], the clearance is 3.83 mL/min/kg. Also, the bioavailability in data set [5] is 47%.
As to `O=C(Nc1ccc(CC(O)c2ccccc2)cc1)c1ccccc1Cl` (racemic), the IC50 on Protein smoothened [1] stood at 14 nM.
On to `O=C(Nc1ccc(-c2ccnc(-c3ccccc3)c2)cc1)c1ccccc1Cl`, for which, on Protein smoothened [1], the 50% inhibitory concentration (IC50) turned out to be 93 nM.
In the case of `O=C(Nc1ccc(-c2coc(-c3ccccc3)n2)cc1)c1ccccc1Cl`, at Protein smoothened [1], the IC50 was 93 nM.
On to `O=C(Nc1ccc(-c2cc(-c3ccccc3)ccn2)cc1)c1ccccc1Cl`, for which the 50% inhibitory concentration (IC50) at Protein smoothened [1] stood at 7.2 nM; on Protein smoothened [7], 26 nM. In addition, the metabolised at 0.5 h in data set [3] is 41%. In data set [4], this compound had a clearance of 2.83 mL/min/kg. The compound further had a bioavailability in data set [5] of 27%.
On to `O=C(Nc1ccc(-c2nc(-c3ccccc3)cs2)cc1)c1ccccc1Cl`, for which the IC50 at Protein smoothened [1] was 27 nM.
Take `Cc1oc(-c2ccc(NC(=O)c3ccccc3Cl)cc2)nc1-c1ccccc1`: on Protein smoothened [1], the IC50 came out at 44 nM.
Consider `O=C(Nc1ccc(-c2cncc(-c3ccccc3)c2)cc1)c1ccccc1Cl`, for which the IC50 at Protein smoothened [1] amounted to 28 nM.
As for `O=C(Cc1ccc(NC(=O)c2ccccc2Cl)cc1)c1ccccc1`, at Protein smoothened [1], the half-inhibitory concentration (IC50) turned out to be 79 nM.
Turning to `O=C(Nc1ccc(-c2ccnc(-c3ccccc3)n2)cc1)c1ccccc1Cl`, on Protein smoothened [1], the IC50 stood at 27 nM.
